Laboratory results reported in patent US20110237535A1, “Use of Induced Pluripotent Cells and other Cells for Screening Compound Libraries” (priority 2010, published 2011).
“Also recorded” adds a separate entry of the source. Read-outs that look alike come from different tables or passages of the source.

Experiments:
HeLa cells = format: cell-based
Method: In another experiment HeLa cells were treated with 100 uM of tamoxifen (a calcium influx stimulator), doxorubicin (a DNA damaging agent), cycloheximide (a protein synthesis inhibitor), digitonin (a mild detergent), and a buffer, and monitored every 15 minutes on a BIND™ Reader for 40 hours in a 37° C. incubator. The cytotoxic compounds each have distinct mechanisms of action that have distinct kinetic profiles in the assays of the invention. Toxins can be tested for their effect on differing types of cells and can be placed into a class or sub-class of toxins (e.g. calcium influx stimulator) based on their kinetic profiles. These assays have a higher throughput than electrical impedance testing for screening and profiling of toxic compounds.

[1] = system: Murine embryonic stem cell-derived cardiomyocytes; experiment: Beating amplitude and frequency of cardiomyocytes, PWV at 4 reads per second; format: cell-based
Method: Murine embryonic stem cell-derived cardiomyocytes were added to wells of a biosensor and a BIND™ Reader recorded PWVs at the rate of 4 reads per second. One well was treated with KCl and another well was not treated. The cells beat synchronously when cultured on BIND™ optical biosensors and the frequency of the beating can be detected. […] The BIND™ Reader detects beating frequency and rate as oscillations of positive-negative PWV shifts. Kinetic PWV profiles can be used to accurately measure beating rate and frequency. Therefore, the assay provides an ultra high-throughput assay to measure off-target drug effects on cardiotoxicity and contractility.
In another experiment the cardiomyocytes were plated at 20,000 cells per well on fibronectin coated biosensor plates. The cells were incubated for 72 h at 37° C. before the experiment. The cells were monitored for 3 minutes before KCl was added to 50 mM final concentration.
In another experiment cardiomyocytes were treated for 17 hours with several different concentrations of doxorubicin (10 μM, 1 μM, 0.1 μM, 0.01 μM, and 0 μM). The beating amplitude and frequency was measured at 4 reads/second prior to doxorubicin treatment, then again after the 17 hour doxorubicin incubation.

cardiomyocytes = experiment: Cardiomyocyte beating recorded with refined high-speed BIND Cartridge Reader; format: cell-based; conditions: 6, 10 and 15 minutes after addition, FIG. 17
Text: An Ocean Optics HT2000+ spectrometer in a BIND™ Cartridge Reader was altered so that the slit that allows light into the spectrometer was widened, allowing more light to enter the enter the spectrometer. Therefore, recordings of up to 1000 Hz, i.e. up to 1000 readings/second can be obtained when the BIND™ Cartridge Reader is “parked” (i.e., the BIND™ Cartridge Reader remains in one position over, e.g., a well holding cells). The recordings are made continually in real-time. Recordings can be taken at about 2, 4, 10, 50, 80, 100, 250, 280, 300, 400, 500, 600, 700, 800, 900, 1,000 or more Hz (or any range between about 2 and about 1,000 Hz).
The refined BIND™ Cartridge Reader was used to take measurements of cardiomyocyte beating. […] By comparison, the data in Examples 1 and 2 was measured at 4 Hz. The increased sampling rate allows a much more refined look at the shape of each individual beat. Different beating “phenotypes” can be determined from well-to-well, in addition, the difference between synchronous beating across the well and asynchronous beating can be determined. […]
Amitriptyline is a tricyclic antidepressant sold under the trade name Elavil™. […] Amitriptyline was added to cardiomyocytes that were beating in culture and PWVs were constantly monitored. […]

[2] = system: mES-derived cardiomyocytes (Cor.At); experiment: Doxorubicin toxicity on mES-derived cardiomyocytes, constant PWV monitoring; format: cell-based, murine
Method: mES-derived cardiomyocytes (Cor.At) were obtained from Axiogenesis/Lonza. 5,000 cells per well were plated on fibronectin-coated 384 well biosensor plates for 24 h before experiment. These cells beat in culture. Cells were treated with doxorubicin for 17 h at 37° C. with constant monitoring using the BIND™ Reader. […] There is an oscillation of PWVs that indicates the beating of the cells. The amplitude of the beating becomes stronger over time. That is, there is Y axis spread of the PWV reading grows larger over time as the cells beat stronger in culture.

[3] = FIG. 6-9, cell line not restated in these blocks
[4] = KCl-treated well vs untreated well, FIG. 11

| Compound | kinetic profile (PWV over time) (HeLa cells; [3]) | further results |
| --- | --- | --- |
| 4-hydroxy-tamoxifen | faster onset of toxicity than tamoxifen |  |
| CC[C@@]1(O)C(=O)OCc2c1cc1n(c2=O)Cc2cc3ccccc3nc2-1 [Camptothecin] | somewhat different kinetic profile |  |
| N.N.[Cl][Pt][Cl] [Cisplatin] | sudden onset, steep decline, followed by a negative PWV plateau |  |
| [Cl-].[K+] [KCl] |  | rate and frequency of the beating ([1]; KCl 50 mM final concentration, added after 3 minutes of monitoring, 20,000 cells per well, FIG. 13): drastically reduced; amplitude of the beating [1, 4]: loss of amplitude of the beating; frequency of the beating [1, 4]: decrease in the frequency of the beating |
| CN(C)CCC=C1c2ccccc2CCc2ccccc21 [amitriptyline] |  | beating pattern after compound addition (cardiomyocytes): change from regular, synchronous beating to irregular, non-synchronous beating |
| COc1cccc2c1C(=O)c1c(O)c3c(c(O)c1C2=O)C[C@@](O)(C(=O)CO)C[C@@H]3O[C@H]1C[C@H](N)[C@H](O)[C@H](C)O1 [doxorubicin] | sudden onset, steep decline, followed by a negative PWV plateau | PWV readings ([2]; doxorubicin 17 h at 37° C., 5,000 cells per well, FIG. 10): PWV readings become negative; also recorded: dose dependant; amplitude of beating over time ([2]; doxorubicin 17 h at 37° C., FIG. 10A): becomes weaker over time; amplitude and frequency of beating ([1]; 17 hours doxorubicin at 10 μM, 1 μM, 0.1 μM, 0.01 μM, 0 μM, FIG. 14): disrupted by doxorubicin in a concentration-dependent manner |
| CO[C@@]12[C@H](COC(N)=O)C3=C(C(=O)C(C)=C(N)C3=O)N1C[C@@H]1N[C@@H]12 [mitomycin] | sudden onset, steep decline, followed by a negative PWV plateau |  |
| [K+].[K+].[O]=[Cr](=[O])([O-])[O][Cr](=[O])(=[O])[O-] [potassium dichromate] |  | kinetic profile (PWV over time) (HeLa cells): sudden onset, steep decline, followed by a negative PWV plateau |
| O=C(c1ccc(OCCN2CCCCC2)cc1)c1c(-c2ccc(O)cc2)sc2cc(O)ccc12 [raloxifene] | lack of cytotoxic response |  |
| CC/C(=C(\c1ccccc1)c1ccc(OCCN(C)C)cc1)c1ccccc1 [tamoxifen] | sharp downward shift in PWV at early time points |  |
| CC[C@]1(O)C[C@@H]2CN(CCc3c([nH]c4ccccc34)[C@@](C(=O)OC)(c3cc4c(cc3OC)N(C)[C@H]3[C@@](O)(C(=O)OC)[C@H](OC(C)=O)[C@]5(CC)C=CCN6CC[C@]43[C@@H]65)C2)C1 [vinblastine] | rapid acute response and then a gradual negative PWV shift over the long term |  |
